Source: BindingDB's records for doi:10.1016/j.bmc.2009.07.009 (Universita Degli Studi Di Milano, 2009)

Molecular target: XIAP (Homo sapiens)
Test: Fluorescence polarization was measured on an Ultra plate reader (Tecan) at excitation and emission wavelengths of 485 and 530 nm, respectively. The equilibrium binding curves were drawn by plotting millipolarization units (mP) as a function of recombinant XIAP concentration. All experiments were performed in black, flat-bottomed, 96-well mic
Settings: pH 7.5

| IC50 | SMILES |
| --- | --- |
| 600 nM | CC[C@H](N)C(=O)N[C@@H]1C(=O)N2[C@@H](CC[C@@H]1COC(=O)c1ccccc1)CC[C@H]2C(=O)NC(c1ccccc1)c1ccccc1 [1-aza-2-oxobicyclo[5.3.0]decane scaffold, 12b] |
| 250 nM | CC[C@H](N)C(=O)N[C@@H]1C(=O)N2[C@@H](CC[C@@H]1CCN)CC[C@H]2C(=O)NC(c1ccccc1)c1ccccc1 [(3S,6S,7R,9aS)-6-[(2S)-2-aminobutanamido]-7-(2-aminoethyl)-N-(diphenylmethyl)-5-oxo-octahydro-1H-pyrrolo[1,2-a]azepine-3-carboxamide] |
